Relative viability data for 7 cell lines are collected here from the supplement of paper PMC10307832.

Common to all, as to test: relative viability (nuclei count vs DMSO), 5 days (fraction); higher = more cells survive
Compound in experiment [1]: COc1cc2ncn(-c3cc(OCc4ccccc4C(F)(F)F)c(C(N)=O)s3)c2cc1OC + COc1cc2c(Oc3ccc(NC(=O)C4(C(=O)Nc5ccc(F)cc5)CC4)cc3F)ccnc2cc1OCCCN1CCOCC1 [Foretinib] (partner 0.25 µM)
The method, boiled down: (§1)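 The day after seeding in 1536-well plates, lung cancer cell lines were treated by pin tool with a single drug, or with a fixed anchor-drug dose together with five library-drug doses (not always all listed) in √10 steps. After 5 days, a combined fix-and-stain solution (final 0.05% Triton X-100, 1% formaldehyde, 1 ug/ml Hoechst) was added. Nuclei counted on 4× images gave relative viability as treated counts over vehicle counts, reported as the median of duplicate plates.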

Compound in experiment [2]: COc1cc2ncn(-c3cc(OCc4ccccc4C(F)(F)F)c(C(N)=O)s3)c2cc1OC + Cc1nc(NC(=O)N2CCC[C@H]2C(N)=O)sc1-c1ccnc(C(C)(C)C(F)(F)F)c1 [Alpelisib] (partner 2 µM)
The method, boiled down: as §1

Compound in experiment [3]: COc1cc2ncn(-c3cc(OCc4ccccc4C(F)(F)F)c(C(N)=O)s3)c2cc1OC + Nc1nc2[nH]cc(CCc3ccc(C(=O)N[C@@H](CCC(=O)O)C(=O)O)cc3)c2c(=O)[nH]1 [Pemetrexed] (partner 0.2 µM)
Summed up: as §1

Compound in experiment [4]: COc1cc2ncn(-c3cc(OCc4ccccc4C(F)(F)F)c(C(N)=O)s3)c2cc1OC + O=C(c1cc(Cc2n[nH]c(=O)c3ccccc23)ccc1F)N1CCN(C(=O)C2CC2)CC1 [Olaparib] (partner 8 µM)
Summed up:
as §1

Regarding NCI-H1355, the relative viability in experiment [1] (first compound 0.05 µM) turned out to be 0.935; in experiment [1] (first compound 0.1581 µM), 0.888; in experiment [1] (first compound 0.5 µM), 0.642; in experiment [1] (first compound 1.581 µM), 0.218; in experiment [1] (first compound 5 µM), 0.139; in experiment [2] (first compound 0.05 µM) it was 0.879. The relative viability in experiment [2] (first compound 0.1581 µM) is 0.827; in experiment [2] (first compound 0.5 µM), 0.669; in experiment [2] (first compound 1.581 µM), 0.208; in experiment [2] (first compound 5 µM), 0.143; in experiment [3] (first compound 0.05 µM), 1.12; in experiment [3] (first compound 0.1581 µM) it was 0.924. The relative viability in experiment [3] (first compound 0.5 µM) came out at 0.88; in experiment [3] (first compound 1.581 µM), 0.223; in experiment [3] (first compound 5 µM), 0.141; in experiment [4] (first compound 0.05 µM) it was 0.486; in experiment [4] (first compound 0.1581 µM), 0.671; in experiment [4] (first compound 0.5 µM), 0.3. The relative viability in experiment [4] (first compound 1.581 µM) was determined as 0.15; in experiment [4] (first compound 5 µM), 0.128.

As to HCC-827, the relative viability in experiment [1] (first compound 0.05 µM) amounted to 1.04; in experiment [1] (first compound 0.1581 µM), 0.987; in experiment [1] (first compound 0.5 µM), 0.718; in experiment [1] (first compound 1.581 µM), 0.277; in experiment [1] (first compound 5 µM), 0.213; in experiment [2] (first compound 0.05 µM) it was 0.887. Besides, the relative viability turned out to be 1.03 in experiment [2] (first compound 0.1581 µM); 0.667 in experiment [2] (first compound 0.5 µM); 0.286 in experiment [2] (first compound 1.581 µM); 0.226 in experiment [2] (first compound 5 µM); 0.269 in experiment [3] (first compound 0.05 µM); 0.304 in experiment [3] (first compound 0.1581 µM). Moreover, the relative viability came to 0.227 in experiment [3] (first compound 0.5 µM); 0.259 in experiment [3] (first compound 1.581 µM); 0.263 in experiment [3] (first compound 5 µM); 0.575 in experiment [4] (first compound 0.05 µM); 0.547 in experiment [4] (first compound 0.1581 µM); 0.452 in experiment [4] (first compound 0.5 µM). Further, the relative viability was 0.306 in experiment [4] (first compound 1.581 µM) and 0.179 in experiment [4] (first compound 5 µM).

For the cell line HARA, the relative viability in experiment [1] (first compound 0.05 µM) was determined as 1.03; in experiment [1] (first compound 0.1581 µM) it was 0.886; in experiment [1] (first compound 0.5 µM), 0.734; in experiment [1] (first compound 1.581 µM), 0.11; in experiment [1] (first compound 5 µM), 0.0673; in experiment [2] (first compound 0.05 µM), 0.894. Moreover, the relative viability in experiment [2] (first compound 0.1581 µM) was found to be 0.764; in experiment [2] (first compound 0.5 µM) it was 0.712; in experiment [2] (first compound 1.581 µM) it was 0.176; in experiment [2] (first compound 5 µM), 0.0641; in experiment [3] (first compound 0.05 µM), 0.242; in experiment [3] (first compound 0.5 µM), 0.24. Moreover, the relative viability in experiment [3] (first compound 1.581 µM) stood at 0.176; in experiment [3] (first compound 5 µM), 0.126; in experiment [4] (first compound 0.05 µM) it was 0.317; in experiment [4] (first compound 0.5 µM), 0.261; in experiment [4] (first compound 1.581 µM), 0.131; in experiment [4] (first compound 5 µM) it was 0.105.

As for HCC-366, the relative viability came to 0.962 in experiment [1] (first compound 0.05 µM); 0.938 in experiment [1] (first compound 0.1581 µM); 0.282 in experiment [1] (first compound 0.5 µM); 0.0269 in experiment [1] (first compound 1.581 µM); 0.0243 in experiment [1] (first compound 5 µM); 0.656 in experiment [2] (first compound 0.05 µM). Also, the relative viability in experiment [2] (first compound 0.1581 µM) worked out at 0.246; in experiment [2] (first compound 0.5 µM), 0.123; in experiment [2] (first compound 1.581 µM) it was 0.0134; in experiment [2] (first compound 5 µM) it was 0.0086; in experiment [3] (first compound 0.05 µM), 0.166; in experiment [3] (first compound 0.1581 µM) it was 0.155. The relative viability in experiment [3] (first compound 0.5 µM) was 0.0748; in experiment [3] (first compound 1.581 µM) it was 0.0321; in experiment [3] (first compound 5 µM) it was 0.0197; in experiment [4] (first compound 0.05 µM), 0.204; in experiment [4] (first compound 0.1581 µM), 0.273; in experiment [4] (first compound 0.5 µM), 0.0764. The results for the relative viability in experiment [4] (first compound 1.581 µM) and in experiment [4] (first compound 5 µM) were 0.0193 and 0.0147, respectively.

For NCI-H322M, the relative viability is 0.956 in experiment [1] (first compound 0.05 µM); 1.16 in experiment [1] (first compound 0.1581 µM); 0.857 in experiment [1] (first compound 0.5 µM); 0.499 in experiment [1] (first compound 1.581 µM); 0.406 in experiment [1] (first compound 5 µM); 0.797 in experiment [2] (first compound 0.05 µM). The relative viability in experiment [2] (first compound 0.1581 µM) came to 0.847; in experiment [2] (first compound 0.5 µM) it was 0.687; in experiment [2] (first compound 1.581 µM) it was 0.426; in experiment [2] (first compound 5 µM), 0.336; in experiment [3] (first compound 0.05 µM), 0.682; in experiment [3] (first compound 0.1581 µM) it was 0.707. The relative viability in experiment [3] (first compound 0.5 µM) was determined as 0.524; in experiment [3] (first compound 1.581 µM), 0.429; in experiment [3] (first compound 5 µM) it was 0.352; in experiment [4] (first compound 0.05 µM) it was 0.717; in experiment [4] (first compound 0.1581 µM) it was 0.778; in experiment [4] (first compound 0.5 µM) it was 0.594. For the same cell line, the relative viability was found to be 0.475 in experiment [4] (first compound 1.581 µM) and 0.423 in experiment [4] (first compound 5 µM).

As to NCI-H2347, the relative viability was 0.966 in experiment [1] (first compound 0.05 µM); 0.916 in experiment [1] (first compound 0.1581 µM); 0.98 in experiment [1] (first compound 0.5 µM); 0.651 in experiment [1] (first compound 1.581 µM); 0.428 in experiment [1] (first compound 5 µM); 0.896 in experiment [2] (first compound 0.05 µM). In addition, the relative viability in experiment [2] (first compound 0.1581 µM) is 0.92; in experiment [2] (first compound 0.5 µM), 0.813; in experiment [2] (first compound 1.581 µM) it was 0.581; in experiment [2] (first compound 5 µM) it was 0.735; in experiment [3] (first compound 0.05 µM) it was 0.455; in experiment [3] (first compound 0.1581 µM) it was 0.434. For the same cell line, the relative viability was determined as 0.403 in experiment [3] (first compound 0.5 µM); 0.364 in experiment [3] (first compound 1.581 µM); 0.33 in experiment [3] (first compound 5 µM); 0.491 in experiment [4] (first compound 0.05 µM); 0.569 in experiment [4] (first compound 0.1581 µM); 0.504 in experiment [4] (first compound 0.5 µM). For the same cell line, the relative viability in experiment [4] (first compound 1.581 µM) was found to be 0.513; in experiment [4] (first compound 5 µM), 0.471.

Turning to NCI-H1975, the relative viability in experiment [1] (first compound 0.05 µM) turned out to be 0.932; in experiment [1] (first compound 0.1581 µM), 0.961; in experiment [1] (first compound 0.5 µM), 0.516; in experiment [1] (first compound 1.581 µM), 0.155; in experiment [1] (first compound 5 µM) it was 0.138; in experiment [2] (first compound 0.05 µM), 0.645. The relative viability in experiment [2] (first compound 0.1581 µM) turned out to be 0.609; in experiment [2] (first compound 0.5 µM), 0.359; in experiment [2] (first compound 1.581 µM), 0.153; in experiment [2] (first compound 5 µM), 0.152; in experiment [3] (first compound 0.05 µM) it was 0.3; in experiment [3] (first compound 0.1581 µM) it was 0.274. In addition, the relative viability in experiment [3] (first compound 0.5 µM) was 0.232; in experiment [3] (first compound 1.581 µM), 0.188; in experiment [3] (first compound 5 µM), 0.159; in experiment [4] (first compound 0.05 µM), 0.464; in experiment [4] (first compound 0.1581 µM), 0.651; in experiment [4] (first compound 0.5 µM), 0.319. For the same cell line, the relative viability in experiment [4] (first compound 1.581 µM) worked out at 0.168; in experiment [4] (first compound 5 µM) it was 0.146.
